The values that follow come from patent US20230218714A1, “DIAGNOSTICS AND USE OF QUORUM SENSING MOLECULES IN MUSCLE WASTING” (Universiteit Gent, priority 2019, published 2023).

“And” between values parts separate entries of the source, which are not always exact repeats. Identical values can stand only once. “Also recorded” adds a separate entry of the source.

For assay [1], the system named is IL-6 production by C2C12 myotubes. The assay is described as follows: IL-6 production by C2C12 myotubes (sandwich ELISA). It counts as cell-based, mouse. To be noted: for Effect: inflammation (IL-6 production, hit direction): screening at 1 μM. The method, then: C2C12 myoblasts (2.5×10^4 cells/well) were seeded in 96-well plates and incubated until they reached 80% confluency, after which the proliferation medium was removed and replaced by differentiation medium. After 6 days of incubation with daily renewed differentiation medium, the cells were treated with 1 μM of QSM, placebo or positive control (LPS) for 24 hours. IL-6 levels were determined in the supernatants using a sandwich ELISA (eBioscience), using IL-6 capture antibody, blocking solution, samples and standards, IL-6 detection antibody, avidin-horseradish peroxidase and substrate solution which were added sequentially, with washing steps in between. After stopping the reaction with H2SO4 solution, the absorbance was measured at 450 nm and 570 nm (correction wavelength) using a microplate reader (ThermoLab Systems). Concentrations were determined using the standard curves generated with known concentrations of IL-6.
Several pro-inflammatory cytokines are elevated in sepsis, cancer, ageing and other catabolic diseases. They are thought to trigger muscle wasting (partly) through NF-kB pathways. […] In these screening experiments, the effects of QSM on myotube IL-6 production were assessed using a sandwich ELISA.
In a further set of experiments, using similar methods as described for the screening experiments, a number of QSPs were tested for a dose response relation in C2C12 cells.

In assay [2] the test system is human muscle cells. The assay is described as follows: IL-6 production dose response in human muscle cells. The assay is classed as cell-based. To be noted: FIG. 12. As to the method:
Differentiation medium consisted of high glucose Glutamax DMEM supplemented with penicillin (100 units/ml), streptomycin (100 μg/ml) and insulin (10 μg/mL).
Using similar methods as described for the C2C12 experiments, a number of QSPs were tested for a dose response relation in human muscle cells.

Assay [3] relates to C2C12 cells. As to the kind of experiment: Co-treatment of C2C12 cells with Q176 and ala-scan derivative, MTT response. To be noted: Q176 50 μM plus derivative 60 μM. It counts as cell-based, mouse. From the text: (§1) Means±SEM, n=6. * P<0.05; ** P<0.01, *** P<0.001; paired Student's t test.
The test system of assay [4] is C2C12 cells. The assay is described as follows: Co-treatment of C2C12 cells with QSP and ala-scan derivative, IL-6 response. The assay is classed as cell-based, mouse. To be noted: Q176 50 μM plus derivative 60 μM.
From the text: as §1

The subject of assay [5] is GDF15 production by C2C12 myotubes. As to the kind of experiment: GDF15 production by C2C12 myotubes (sandwich ELISA), mitochondrial changes. The assay is classed as cell-based, mouse. To be noted: QSM 1 μM, C2C12 myotubes. The method, then:
GDF15 levels were determined in the supernatants of C2C12 cells after QSM, placebo or positive control (oligomyin) treatment, using a sandwich ELISA (R&D Systems). A similar protocol as described for the IL-6 determination was used.
GDF15 is considered a useful biomarker for direct or indirect changes in mitochondrial function. Moreover, GDF15 is implicated in muscle wasting diseases like sarcopenia, chronic obstructive pulmonary disease cachexia and critical illness.
A general note: In an ELISA, binding on a coated surface is turned into a signal by an enzyme label.

Assay [6] deals with atrogin, MuRF1, caspase 3 and atg7. The assay is described as follows: Protein degradation gene expression in C2C12 cells (RT-qPCR). It counts as cell-based, mouse. As to the method: C2C12 cells were seeded in 6-well (4×10^5 cells/well) or 12-well plates (1.5×10^5 cells/well). […] Thereafter, cells were scraped off from the well surface and resuspended in RLT lysis buffer (Qiagen). RNA was extracted from these lysed cells using RNeasy micro columns (Qiagen). Subsequently, RNA was reverse-transcribed using a mix of oligo-dT and random primers together with Quantiscript reverse transcriptase (Qiagen). DNAse steps were included in the protocol to remove possible DNA contamination. Real-time PCR was performed starting with 7.5 ng cDNA and both sense and antisense oligonucleotides in a final volume of 8 μl in a 384-well plate using the SensiMix SYBR green PCR master mix (Bioline). The following genes were analysed: atrogin, MuRF1, caspase 3 and atg7.
The second derivative method was used to determine the threshold or Cq values, with analysis of Ppia (Peptidylprolyl isomerase A), Rer (Rhodopsin enhancer region) and Hprt (Hypoxanthine-guanine phosphoribosyltransferase) mRNA to normalize gene expression (delta Cq method). […]
To screen the possible effects of 75 QSM on these 3 proteolysis systems, mRNA transcripts of the following representative genes were measured: atrogin and MuRF1 (UPS), caspase 3 (apoptosis system) and autophagy-related protein 7 (autophagy system). […]

Regarding ESRVSRIILDFLFQRKK [Q055], the “Relative IL-6” value in assay [1] (concentration 0.20 μM) was 0.94; in assay [1] (concentration 0.39 μM), 1.07; in assay [1] (concentration 1.56 μM), 0.93; in assay [1] (concentration 3.13 μM) it was 1.24; in assay [1] (concentration 6.25 μM) it was 1.24; in assay [1] (concentration 12.5 μM), 3.60. Besides, the “Relative IL-6” value in assay [1] (concentration 25 μM) is recorded as 5.56; in assay [1] (concentration 50 μM) it was 8.94; in assay [1] (concentration 100 μM) it was 6.48. For the same substance, in assay [1], the “Effect: inflammation (IL-6 production, hit direction)” value (“Effect: inflammation” for short) was “increased IL-6 production; also recorded: ↑ inflammation”. Besides, the “dose response relation, IL6 production” value in assay [2] was “Typical curves were obtained”.
“GSLSTFFRLFNASFTQALGK (Synthetic Q176-A13)”: the “effect on Q176 mediated MTT effect” value in assay [3] was “inhibiting the Q176 mediated MTT effect”; in assay [3] (listed as QSP176-A13) it was “clearly abolishes both effects”. The “effect on Q176 mediated IL-6 induction” value in assay [4] was “inhibiting the Q176 mediated IL-6 induction”; in assay [4] (listed as QSP176-A13), “clearly abolishes both effects”.
On to KSSAYSLQMGATAIKQVKKLFKKWGW [Q125], for which the “relative IL-6 production” value in assay [1] (QSM 1 μM, 24 h, relative to median of all QSM) came out at 171%. Also, the “Relative IL-6” value in assay [1] (concentration 0.20 μM) was determined as 0.89; in assay [1] (concentration 0.39 μM), 0.90; in assay [1] (concentration 1.56 μM), 1.28; in assay [1] (concentration 3.13 μM), 1.96; in assay [1] (concentration 6.25 μM), 2.08; in assay [1] (concentration 12.5 μM), 4.89. The “Relative IL-6” value in assay [1] (concentration 25 μM) is given as 5.55; in assay [1] (concentration 50 μM) it was 8.23; in assay [1] (concentration 100 μM), 9.80. Further, the “Effect: inflammation” value in assay [1] is “increased IL-6 production; also recorded: ↑ inflammation”. Further, the “dose response relation, IL6 production” value in assay [2] is on record as “Typical curves were obtained”.
As for NEVPFEF [Q146], in assay [5], the “GDF15 secretion, effect relative to median” value was 80%. In assay [6] (QSM 1 μM, 24 h, individual screening), the “decrease in MuRF1 gene expression compared to placebo” value was ~20% and 20%. The “Effect: proteolysis (hit direction)” value in assay [6] (screening at 1 μM) is listed as “↓ proteolysis”.
For SGSLSTFFRLFNRSFTQALGK [Q176], the “Relative IL-6” value in assay [1] (concentration 0.20 μM) amounted to 1.00; in assay [1] (concentration 0.39 μM) it was 0.89; in assay [1] (concentration 1.56 μM), 1.53; in assay [1] (concentration 3.13 μM) it was 1.61; in assay [1] (concentration 6.25 μM) it was 2.39; in assay [1] (concentration 12.5 μM), 3.24. In addition, the entries for the “Relative IL-6” value in assay [1] (concentration 25 μM), in assay [1] (concentration 50 μM) and in assay [1] (concentration 100 μM) were 3.49, 5.81 and 6.01, respectively. Besides, in assay [1], the “Effect: inflammation” value is recorded as “increased IL-6 production; also recorded: ↑ inflammation”. Also, the “dose response relation, IL6 production” value in assay [2] is given as “Typical curves were obtained”.
